Source: patent US9499537B2, “Antiviral pyrrolopyridine derivatives and method for preparing the same” (KOREA RESEARCH INSTITUTE OF CHEMICAL TECHNOLOGY, priority 2011, dated 2016)

These compounds were tested on MT-4 cells (assay: Cytotoxicity test in MT-4 cells (MTT method)). Details: human.
Assay type: cell-based
Protocol: In order to look into the HIV-1 inhibition effects of the compound of the present invention, an in vitro test for HIV-1 inhibition effects was carried out as follows according to a known method (H. Tanaka et al., J. Med. Chem., 1991, 34, 349). MT-4 cells were used as host cells, and the degree of the compound of the present invention inhibiting the cytotoxicity of the virus-infected MT-4 cells was investigated.
First, MT-4 cells were diffused at a concentration of 1×10^4 cell/well to a culture medium, and HIV-1 was inoculated so that the concentration was 500 TCI50 (concentration at which 50% of the cell is infected)/well. Immediately after the inoculation, the cell dispersion was transferred in 100 μL each to a flat microtiter plate in which the sample of the compound of the present invention was placed. The sample was incubated for approximately for 4 to 5 days at […], and the virus suppression effect was determined using an MTT method. In addition, the cytotoxicity was also determined by measuring the survivability of the experimentally virus-infected cells using an MTT method. As a comparative compound, azidothymidine (AZT) and raltegravir were used.

Row | Structure (SMILES) | CC60 (μM) ** : concentration at 50% cell damage with respect to MT-4 cells [µM]
1 | Cc1nc2c(c(C)c(C)n2C)c(-c2ccc(Cl)cc2)c1C(OC(C)(C)C)C(=O)O (stereo not drawn) [Example 1, 2-Tert-butoxy-2-(4-(4-chlorophenyl)-1,2,3,6-tetramethyl-1H-pyrrolo[2,3-b]pyridin-5-yl)acetic acid] | 25
2 | CCn1c(C)c(C)c2c(-c3ccc(Cl)cc3)c(C(OC(C)(C)C)C(=O)O)c(C)nc21 (stereo not drawn) [Example 2, 2-Tert-butoxy-2-(4-(4-chlorophenyl)-1-ethyl-2,3,6-trimethyl-1H-pyrrolo[2,3-b]pyridin-5-yl)acetic acid] | >233
3 | C=CCn1c(C)c(C)c2c(-c3ccc(Cl)cc3)c(C(OC(C)(C)C)C(=O)O)c(C)nc21 (stereo not drawn) [Example 3, 2-(1-Allyl-4-(4-chlorophenyl)-2,3,6-trimethyl-1H-pyrrolo[2,3-b]pyridin-5-yl)-2-tert-butoxyacetic acid] | 26.19
4 | Cc1nc2c(c(C)c(C)n2CC2CC2)c(-c2ccc(Cl)cc2)c1C(OC(C)(C)C)C(=O)O (stereo not drawn) [Example 4, 2-Tert-butoxy-2-(4-(4-chlorophenyl)-1-(cyclopropylmethyl)-2,3,6-trimethyl-1H-pyrrolo[2,3-b]pyridin-5-yl)acetic acid] | 18
5 | Cc1nc2c(c(C)c(C)n2Cc2ccccc2)c(-c2ccc(Cl)cc2)c1C(OC(C)(C)C)C(=O)O (stereo not drawn) [Example 5, 2-(1-Benzyl-4-(4-chlorophenyl)-2,3,6-trimethyl-1H-pyrrolo[2,3-b]pyridin-5-yl)-2-tert-butoxyacetic acid] | 17
6 | Cc1nc2c(c(C)c(C)n2Cc2cccc(Cl)c2)c(-c2ccc(Cl)cc2)c1C(OC(C)(C)C)C(=O)O (stereo not drawn) [Example 6, 2-Tert-butoxy-2-(1-(3-chlorobenzyl)-4-(4-chlorophenyl)-2,3,6-trimethyl-1H-pyrrolo[2,3-b]pyridin-5-yl)acetic acid] | 9.74
7 | Cc1nc2c(c(C)c(C)n2Cc2ccc(F)cc2)c(-c2ccc(Cl)cc2)c1C(OC(C)(C)C)C(=O)O (stereo not drawn) [Example 8, 2-Tert-butoxy-2-(4-(4-chlorophenyl)-1-(4-fluorobenzyl)-2,3,6-trimethyl-1H-pyrrolo[2,3-b]pyridin-5-yl)acetic acid] | 12.8
8 | COc1ccc(Cn2c(C)c(C)c3c(-c4ccc(Cl)cc4)c(C(OC(C)(C)C)C(=O)O)c(C)nc32)cc1 (stereo not drawn) [Example 9, 2-Tert-butoxy-2-(4-(4-chlorophenyl)-1-(4-methoxybenzyl)-2,3,6-trimethyl-1H-pyrrolo[2,3-b]pyridin-5-yl)acetic acid] | 18.04
9 | Cc1nc2c(c(C)c(C)n2Cc2ccncc2)c(-c2ccc(Cl)cc2)c1C(OC(C)(C)C)C(=O)O (stereo not drawn) [Example 10, 2-Tert-butoxy-2-(4-(4-chlorophenyl)-2,3,6-trimethyl-1-(pyridin-4-ylmethyl)-1H-pyrrolo[2,3-b]pyridin-5-yl)acetic acid] | >203
10 | Cc1nc2c(c(C)c(C)n2Cc2ccccc2C#N)c(-c2ccc(Cl)cc2)c1C(OC(C)(C)C)C(=O)O (stereo not drawn) [Example 11, 2-Tert-butoxy-2-(4-(4-chlorophenyl)-1-(2-cyanobenzyl)-2,3,6-trimethyl-1H-pyrrolo[2,3-b]pyridin-5-yl)acetic acid] | 15.19
11 | Cc1nc2c(c(C)c(C)n2Cc2cccnc2)c(-c2ccc(Cl)cc2)c1C(OC(C)(C)C)C(=O)O (stereo not drawn) [Example 12, 2-Tert-butoxy-2-(4-(4-chlorophenyl)-2,3,6-trimethyl-1-(pyridin-3-ylmethyl)-1H-pyrrolo[2,3-b]pyridin-5-yl)acetic acid] | 56.14
12 | Cc1nc2c(c(C)c(C)n2Cc2ccccn2)c(-c2ccc(Cl)cc2)c1C(OC(C)(C)C)C(=O)O (stereo not drawn) [Example 13, 2-Tert-butoxy-2-(4-(4-chlorophenyl)-2,3,6-trimethyl-1-(pyridin-2-ylmethyl)-1H-pyrrolo[2,3-b]pyridin-5-yl)acetic acid] | 85.91
13 | Cc1cccc(Cn2c(C)c(C)c3c(-c4ccc(Cl)cc4)c(C(OC(C)(C)C)C(=O)O)c(C)nc32)n1 (stereo not drawn) [Example 14, 2-Tert-butoxy-2-(4-(4-chlorophenyl)-2,3,6-trimethyl-1-((6-methylpyridin-2-yl)methyl)-1H-pyrrolo[2,3-b]pyridin-5-yl)acetic acid] | 36.6
14 | CCCn1c(C)c(C)c2c(-c3ccc(Cl)cc3)c(C(OC(C)(C)C)C(=O)O)c(C)nc21 (stereo not drawn) [Example 15, 2-Tert-butoxy-2-(4-(4-chlorophenyl)-2,3,6-trimethyl-1-propyl-1H-pyrrolo[2,3-b]pyridin-5-yl)acetic acid] | 20.7
15 | CCCCn1c(C)c(C)c2c(-c3ccc(Cl)cc3)c(C(OC(C)(C)C)C(=O)O)c(C)nc21 (stereo not drawn) [Example 16, 2-Tert-butoxy-2-(1-butyl-4-(4-chlorophenyl)-2,3,6-trimethyl-1H-pyrrolo[2,3-b]pyridin-5-yl)acetic acid] | >219
16 | Cc1nc2c(c(C)c(C)n2CC(C)C)c(-c2ccc(Cl)cc2)c1C(OC(C)(C)C)C(=O)O (stereo not drawn) [Example 17, 2-Tert-butoxy-2-(4-(4-chlorophenyl)-1-isobutyl-2,3,6-trimethyl-1H-pyrrolo[2,3-b]pyridin-5-yl)acetic acid] | 17.57
17 | Cc1nc2c(c(C)c(C)n2CCC(C)C)c(-c2ccc(Cl)cc2)c1C(OC(C)(C)C)C(=O)O (stereo not drawn) [Example 18, 2-Tert-butoxy-2-(4-(4-chlorophenyl)-1-isopentyl-2,3,6-trimethyl-1H-pyrrolo[2,3-b]pyridin-5-yl)acetic acid] | 17.32
18 | Cc1nc2c(c(C)c(C)n2CN2C(=O)c3ccccc3C2=O)c(-c2ccc(Cl)cc2)c1C(OC(C)(C)C)C(=O)O (stereo not drawn) [Example 19, 2-Tert-butoxy-2-(4-(4-chlorophenyl)-1-((1,3-dioxoisoindolin-2-yl)methyl)-2,3,6-trimethyl-1H-pyrrolo[2,3-b]pyridin-5-yl)acetic acid] | >179
19 | C#CCn1c(C)c(C)c2c(-c3ccc(Cl)cc3)c(C(OC(C)(C)C)C(=O)O)c(C)nc21 (stereo not drawn) [Example 20, 2-Tert-butoxy-2-(4-(4-chlorophenyl)-2,3,6-trimethyl-1-(prop-2-ynyl)-1H-pyrrolo[2,3-b]pyridin-5-yl)acetic acid] | 18.77
20 | Cc1nc2c(c(C)c(C)n2C(C)C)c(-c2ccc(Cl)cc2)c1C(OC(C)(C)C)C(=O)O (stereo not drawn) [Example 21, 2-Tert-butoxy-2-(4-(4-chlorophenyl)-1-isopropyl-2,3,6-trimethyl-1H-pyrrolo[2,3-b]pyridin-5-yl)acetic acid] | 24.51
21 | Cc1nc2c(c(C)c(C)n2CC#N)c(-c2ccc(Cl)cc2)c1C(OC(C)(C)C)C(=O)O (stereo not drawn) [Example 22, 2-Tert-butoxy-2-(4-(4-chlorophenyl)-1-cyanomethyl-2,3,6-trimethyl-1H-pyrrolo[2,3-b]pyridin-5-yl)acetic acid] | 114.47
